Structures are written as SMILES.

The text below walks through data of patent publication US7772252B2, “Heterocyclic substituted carbonyl derivatives and their use as dopamine D3 receptor ligands” (Aventis Pharmaceuticals Inc., priority 2001, dated 2010).

T1 sequence (P35462 whole entry): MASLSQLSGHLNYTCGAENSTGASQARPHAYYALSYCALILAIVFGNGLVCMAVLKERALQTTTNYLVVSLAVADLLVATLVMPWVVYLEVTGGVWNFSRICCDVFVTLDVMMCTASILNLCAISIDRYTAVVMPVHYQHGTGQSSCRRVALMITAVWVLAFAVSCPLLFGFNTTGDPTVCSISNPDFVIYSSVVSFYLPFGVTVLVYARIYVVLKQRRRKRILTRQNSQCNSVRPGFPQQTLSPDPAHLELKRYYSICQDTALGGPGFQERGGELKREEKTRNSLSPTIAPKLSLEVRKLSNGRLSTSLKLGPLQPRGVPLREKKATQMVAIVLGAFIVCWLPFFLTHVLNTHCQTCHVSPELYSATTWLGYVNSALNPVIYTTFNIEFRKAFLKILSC

The first experiment has as its target T1, cloned human dopamine D3 receptors (Homo sapiens, UniProt P35462).
T1 construct: expressed in transfected cells; membrane homogenate
Kind of experiment: [N-Methyl-3H]Spiroperidol binding to cloned human dopamine D3 receptors. As to conditions: read-out: D3 Ki. An excerpt:
[N-Methyl-^3H]Spiroperidol Binding to Cloned Human Dopamine D3 Receptors
This assay measures the in vitro activity of compounds on cloned human dopamine (D3) receptors and predicts the direct dopamine-blocking properties of putative neuropsychiatric agents at human dopamine D3 receptors.
The D3 gene was isolated from a human striatal cDNA library (Stratagene). The gene was sequenced and sub-cloned into the expression vector RC/RSV (Invitrogen). CHO (Chinese Hamster Ovary) cells were stably transfected with 10 μg of the D3/RSV plasmid using the DOTAP method from Boehringer Mannheim and 72 clones that were G418 resistant were isolated. Using mRNA and binding displacement data a single high expressing clone was identified. This clone was then grown in large batches for the purpose of developing a 96 well format assay.
• 1. One plate (10 cm) with approximately 2-3 million D3 cells per plate is incubated with 1 ml of Trypsin-EDTA at room temperature for ˜2 min or until cells have lifted off plates. Four ml of Ham's F12+10% Fetal Bovine Serum+1% Penicillin/Streptomycin+G418 (400 μg/ml) medium are added to resuspend cells and 1 ml of this is added to each large plate (15 cm) containing 19 ml of the same medium as mentioned above. • 2. The 5 large plates are incubated at 37° C.+5% CO2 for ˜3 days or until the cells are confluent. • 3. After these plates are confluent, they are split into 10 large plates. Medium is aspirated off, 2 ml of Trypsin-EDTA are added to each plate and plates are incubated at RT for 2 min or until cells have lifted off the plate. Eight ml of the F12 medium (same medium as #1 above) are added to each plate (10 ml total) to resuspend the cells and 5 ml are transferred to the 2 new plates containing 15 ml of the F12 media. • 4. The 10 large plates are incubated at 37° C.+5% CO2 for ˜2 days or until the cells are confluent. • 5. The 10 large plates are split into 60 large plates (using Trypsin-EDTA as #3 except 4 ml of F12 medium are added to resuspend cells and 1 ml is aliquoted to 6 new plates containing 19 ml of F12 medium each). • 6. Plates are incubated at 37° C.+5% CO2 for ˜3 days or until cell are confluent. • 7. The 60 large plates are then split into 60 roller bottles (100-150 million cells/bottle). Medium is aspirated off, 2 ml of Trypsin-EDTA are added to each plate and incubated at RT for ˜2 minutes or until cells have lifted off plates. Eight ml of F12 medium are added to each plate to resuspend cells and the entire 10 ml are added to 1 roller bottle containing 90 ml of the F12 medium. • 8. The 60 roller bottles are immediately placed on their sides and transferred to the roller bottle incubator. They are incubated at 37° C.+5% CO2 for ˜3-5 days. Cells are spun at 30-40% motor speed in the Form a incubator. • 9. Medium is poured off and cells are washed 2× in PBS. • 10. Cells are then scraped off in 20 ml of PBS and the bottles are rinsed again with 5 ml of PBS to remove any remaining cells. Cells are stored on ice before membrane preparation. • 11. The yield for 60 D3 roller bottles has varied from ˜260-500 mg. • Note: All tissue culture reagents are from Gibco-BRL. C. Membrane Preparation
The cells are harvested into 250 ml centrifuge tubes with 100 volumes of cold phosphate buffered saline (PBS) and spun down (1200×G for 10 min at 4° C.). The medium is removed and 100 ml PBS are added to each centrifuge tube, cells are resuspened and spun down again. The PBS is removed and the final pellet is homogenized in an appropriate volume of 10% DMSO with a polytron on ice at a medium setting.
A 200 μl sample membrane homogenate is added to 200 μl of 1% SDS, vortexed and allowed to stand for 5 min. Aliquots (25, 50 and 100 μl) of this mixture are assayed in duplicate following the standard Bio-Rad DC protein assay protocol (kit catalog number 500-0112) and using reagent S. Absorbance readings are made at 750 nm (note: the most accurate protein OD readings are between 0.1-0.5 units). […]
With `O=C(NC1CCN(Cc2cc(F)ccc2Cl)CC1)C1CC1CN1CCC(c2noc3ccsc23)CC1` (racemic) [compound 832346], the Ki came out at 12.9 nM.
In the case of `COc1ccc2c(c1)c(N1CCN(C[C@@H]3C[C@H]3C(=O)N[C@H]3CC[C@H](C)CC3)CC1)nn2C` [compound 831768], the Ki is 0.904 nM.
With `O=C(NCCCN1CCCCC1)[C@@H]1C[C@H]1CN1CCC(c2noc3ccsc23)CC1` [compound 831045], the Ki is 335 nM.
Turning to `CC1CCC(NC(=O)C2CC2CN2CCN(c3noc4ccsc34)CC2)CC1` (racemic) [compound 830127], the Ki was determined as 1.66 nM.
On the same count and under the same terms, the figure for `O=C(NC1CCN(Cc2cc(F)cc(F)c2)CC1)[C@@H]1C[C@H]1CN1CCC(c2noc3ccsc23)CC1` [compound 833166] is 1.72 nM; for `O=C(NC1CCN(CCc2cccc(Cl)c2)CC1)[C@@H]1C[C@H]1CN1CCC(c2noc3ccsc23)CC1` [compound 833748] it is 1.38 nM; for `O=C(C1CC1CN1CCC(c2noc3ccsc23)CC1)N1CCC(n2ccnc2)CC1` (racemic) [compound 832193] it is 13.1 nM.
As to `COc1ccc2c(c1)c(N1CCN(C[C@@H]3C[C@H]3C(=O)NC[C@@H]3CCNC3)CC1)nn2C` [compound 833632], the Ki turned out to be 4.06 nM.
For `O=C(NCCC(c1ccccc1)c1ccccc1)C1CC1CN1CCC(c2noc3ccsc23)CC1` (racemic) [compound 832191], the Ki was found to be 8.06 nM.
Take `O=C(NCCCCc1ccccc1)[C@@H]1C[C@H]1CN1CCC(c2noc3ccsc23)CC1` [compound 831047]: the Ki was 2.87 nM.
Same read-out and setting: for `O=C([C@@H](O)CCN1CCC(c2noc3ccsc23)CC1)N1CCCCC1` [compound 830557] the value was 97.4 nM; for `O=C(C1CC1CN1CCC(c2noc3ccsc23)CC1)N1CCN(CC2CCCCC2)CC1` (racemic) [compound 832195], 22.8 nM.
As for `CC(=O)N1CCCCC1CCNC(=O)[C@@H]1C[C@H]1CN1CCN(c2csc3cc(C(F)(F)F)ccc23)CC1` (mixture of isomers) [compound 833064], the Ki was 28.8 nM.
On the same count and under the same terms, the figure for `O=C(NCCCn1ccnc1)[C@@H]1C[C@H]1CN1CCC(c2nsc3cc(Br)ccc23)CC1` [A002329097] is 101 nM.
`CC[C@H]1CC[C@H](NC(=O)C2(CCN3CCC(c4noc5ccsc45)CC3)CC2)CC1` [832242A]: the Ki turned out to be 436 nM.
The same measure, in the same setting: the figure for `COc1cccc2c(C3CCN(C[C@@H]4C[C@H]4C(=O)NCCCn4ccnc4)CC3)nn(C)c12` [compound 834058] is 91.4 nM.
Same read-out and setting: the figure for `Cc1cccc(CN2CCN(C(=O)C3CC3CN3CCC(c4noc5ccsc45)CC3)CC2)c1` (racemic) [compound 832158] is 0.37 nM; for `O=C([C@@H]1C[C@H]1CN1CCN(c2csc3cc(C(F)(F)F)ccc23)CC1)N1CCC(n2ccnc2)CC1` [compound 833513] it is 43.1 nM; for `O=C(NCCCCc1cccnc1)C1CC1CN1CCC(c2noc3ccsc23)CC1` (racemic) [compound 831686] it is 25.3 nM.
Still for that read-out and setting: for `C[C@H]1CC[C@H](NC(=O)[C@@H]2C[C@H]2CN2CCC(c3nn(C4CCCCC4)c4cc(C(F)(F)F)ccc34)CC2)CC1` [compound 833697] the value was 105 nM.
For `O=C(C1CC1CN1CCC(c2noc3ccsc23)CC1)N1CCN(Cc2ccncc2)CC1` (racemic) [compound 831999], the Ki is 473 nM.
Still for that read-out and setting: the figure for `Cn1nc(C2CCN(C[C@@H]3C[C@H]3C(=O)N[C@H]3CC[C@H](C)CC3)CC2)c2ccc(Br)cc21` [compound 833693] is 18.4 nM.
On the same count and under the same terms, for `O=C(C1CC1CN1CCC(c2noc3ccsc23)CC1)N1CCC(c2cc(-c3cccs3)[nH]n2)CC1` (racemic) [compound 831703] the value was 45 nM.
The same measure, in the same setting: for `CC[C@H]1CC[C@H](NC(=O)[C@@H]2C[C@H]2CN2CCN(c3nn(-c4ccc(C(F)(F)F)cc4)c4ccccc34)CC2)CC1` [compound 831226] the value was 26.7 nM.
With `Cn1nc(N2CCN(CCCC(=O)N[C@H]3CC[C@H](C)CC3)CC2)c2sccc21` [A002201941], the Ki worked out at 119 nM.
Turning to `O=C([C@@H]1C[C@H]1CN1CCC(c2csc3cc(C(F)(F)F)ccc23)CC1)N1CCC(Cn2ccnc2)CC1` [compound 834017], the Ki came to 1.62 nM.
On the same count and under the same terms, for `Cc1cn(CCCNC(=O)[C@@H]2C[C@H]2CN2CCC(c3noc4ccsc34)CC2)cn1` [compound 831937] the value was 35 nM.
Still for that read-out and setting: the figure for `O=C([C@@H]1C[C@H]1CN1CCN(c2csc3cc(C(F)(F)F)ccc23)CC1)N1CCCC(Cn2ccnc2)C1` (mixture of isomers) [compound 832268] is 2.62 nM.
In the case of `COc1ccc(N2CCN(CC3CC3C(=O)NC3CCC(C)CC3)C(C)C2)cc1` (racemic) [compound 827192], the Ki amounted to 150 nM.
On the same count and under the same terms, for `CC1CCC(NC(=O)C2CC2CN2CCCN(c3onc4c3CCc3ccccc3-4)CC2)CC1` (racemic) [compound 830123] the value was 73.8 nM; for `CC(C)(C)OC(=O)NCCN1CCN(C(=O)[C@@H]2C[C@H]2CN2CCN(c3csc4cc(C(F)(F)F)ccc34)CC2)CC1` [compound 833278], 7.04 nM.
On the same count and under the same terms, for `O=C(NC1CCN(CC2CC2)CC1)C1CC1CN1CCC(c2noc3ccsc23)CC1` (racemic) [compound 832341] the value was 2.63 nM.
Consider `Cn1nc(C2CCN(C[C@@H]3C[C@H]3C(=O)N[C@H]3CC[C@H](O)CC3)CC2)c2cccc(C(F)(F)F)c21` [compound 833080], for which the Ki was found to be 22.9 nM.
As to `O=C(NC1CCN(Cc2cccc(F)c2)CC1)C1CC1CN1CCC(c2noc3ccsc23)CC1` (racemic) [compound 831994], the Ki is 2.68 nM.
On the same count and under the same terms, for `O=C(NC[C@@H]1CCNC1)[C@@H]1C[C@H]1CN1CCC(c2noc3ccsc23)CC1` [compound 833384] the value was 5.68 nM; for `COc1ccc(CN2CCN(C(=O)C3CC3CN3CCC(c4noc5ccsc45)CC3)CC2)cc1` (racemic) [compound 832155], 0.434 nM; for `CN1CCN(CCCNC(=O)[C@@H]2C[C@H]2CN2CCN(c3nn(-c4ccc(OC(F)(F)F)cc4)c4ccsc34)CC2)CC1` [A002287758], 139 nM.
As for `O=C([C@@H]1C[C@H]1CN1CCC(c2noc3ccsc23)CC1)N1CCC(Oc2ccc(Cl)cc2)CC1` [compound 832723], the Ki stood at 54 nM.
Regarding `CN1CCN(CCCNC(=O)[C@@H]2C[C@H]2CN2CCC(c3csc4cc(C(F)(F)F)ccc34)CC2)CC1` [A002437517], the Ki was 10.5 nM.
`O=C(C1CC1CN1CCC(c2noc3ccsc23)CC1)N1CCN(Cc2ccc(F)cc2)CC1` (racemic) [compound 832164]: the Ki was found to be 6.6 nM.
Still for that read-out and setting: the figure for `O=C(NC1CCN(Cc2ccc(Cl)c(Cl)c2)CC1)C1CC1CN1CCC(c2noc3ccsc23)CC1` (racemic) [compound 831998] is 7.46 nM; for `COc1ccc(CCNC(=O)C2CC2CN2CCC(c3noc4ccsc34)CC2)cc1OC` (racemic) [compound 832186] it is 16.1 nM; for `O=C(NCCCn1ccnc1)[C@@H]1C[C@H]1CN1CCC(c2cc3ccccc3s2)CC1` [compound 831488] it is 0.725 nM.
Consider `O=C(C1CC1CN1CCC(c2noc3ccsc23)CC1)N1CCN(S(=O)(=O)c2ccc(-c3ccccc3)cc2)CC1` (racemic) [compound 831836], for which the Ki is 94.3 nM.

The same experiment, now with this note: read-out: d3Ki.
For `CCN(C(=O)CCCN1CCCN(c2csc3cc(F)ccc23)CC1)C1CCCCC1` [compound 826829], the Ki worked out at 1.5 nM.
